The text below walks through data of ChEMBL document CHEMBL1133714, “1-(2-Nitrophenyl)thiosemicarbazides: a novel class of potent, orally active non-peptide antagonist for the bradykinin B(2) receptor” (J Med Chem, 2000).

This experiment concerns the target T1, B2 bradykinin receptor (Rattus norvegicus, UniProt P25023).
T1 sequence (P25023 whole entry): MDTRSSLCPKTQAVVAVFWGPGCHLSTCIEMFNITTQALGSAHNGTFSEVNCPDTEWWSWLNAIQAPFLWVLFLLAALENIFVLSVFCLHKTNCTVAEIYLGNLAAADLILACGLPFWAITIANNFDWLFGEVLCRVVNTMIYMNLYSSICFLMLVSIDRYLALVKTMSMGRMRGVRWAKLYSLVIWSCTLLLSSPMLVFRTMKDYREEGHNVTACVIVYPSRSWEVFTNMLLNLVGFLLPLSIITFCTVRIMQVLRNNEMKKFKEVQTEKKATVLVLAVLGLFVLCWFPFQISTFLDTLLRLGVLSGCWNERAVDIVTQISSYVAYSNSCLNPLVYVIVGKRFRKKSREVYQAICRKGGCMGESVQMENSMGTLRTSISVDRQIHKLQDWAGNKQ
Briefly: Inhibition of binding of [3H]BK to rat bradykinin B2 receptor expressed in NG108-15 neuroblastoma-glioma hybrid cell membranes. More on the design: species or system Membrane.
`NC(=O)c1ccc(N/N=C(/S)NC(c2ccccc2)c2ccccc2)c([N+](=O)[O-])c1` yielded a Ki of 1.8 nM. This counts as single-digit nanomolar.

`CN(C)CCCN(CCCN(C)C)S(=O)(=O)c1ccc(NNC(=S)NC(c2ccccc2)c2ccccc2)c([N+](=O)[O-])c1` came in with a Ki of 148 nM. Then `CN(C)CCN(C)CCNC(=O)[C@@H]1CCCN1S(=O)(=O)c1ccc(NNC(=S)NC(c2ccccc2)c2ccccc2)c([N+](=O)[O-])c1`, with 0.5 nM; and `O=[N+]([O-])c1cc(S(=O)(=O)NCc2ccccc2)ccc1NNC(=S)NCc1ccccc1`, with 310 nM. `O=[N+]([O-])c1cc(S(=O)(=O)NCc2ccco2)ccc1NNC(=S)NCc1ccco1` returned an inhibition constant Ki of 540 nM. In turn, `O=[N+]([O-])c1ccccc1N/N=C(/S)NC(c1ccccc1)c1ccccc1` returned a Ki of 38 nM.

`O=[N+]([O-])c1cccc(N/N=C(\S)NCc2ccccc2)c1` gave a Ki of over 100000 nM.

`CN(C)CCN(C)CCNC(=O)[C@H]1CCCN1S(=O)(=O)c1ccc(NNC(=S)NC(c2ccccc2)c2ccccc2)c([N+](=O)[O-])c1` had a Ki of 0.6 nM.

`O=C(NCc1ccccc1)NCc1ccccc1[N+](=O)[O-]` showed a Ki of over 100000 nM. As for `NS(=O)(=O)c1ccc(N/N=C(/S)NC(c2ccccc2)c2ccccc2)c([N+](=O)[O-])c1`, the Ki was found to be 4 nM. As for `O=[N+]([O-])c1ccccc1CNC(=S)NCc1ccccc1`, the Ki was found to be 7100 nM. In the case of `O=[N+]([O-])c1cc(S(=O)(=O)NCc2ccccc2)ccc1N/N=C(\S)CCc1ccccc1`, the Ki is over 100000 nM. Then `S=C(NCc1ccccc1)NNc1ccccc1`, with 100000 nM; and `O=[N+]([O-])c1ccccc1N/N=C(/S)NCc1ccccc1`, with 1600 nM.

`O=C(O)c1ccccc1NNC(=S)NCc1ccccc1` had a Ki of over 100000 nM. `O=[N+]([O-])c1cc(S(=O)(=O)NCc2ccccc2)ccc1NC/C(S)=N\Cc1ccccc1` displayed a Ki of over 100000 nM.

As a reminder, the Ki is the equilibrium dissociation constant of an inhibitor or competing ligand from its target.
